± gives the standard deviation of the averaged measurements.
How the values were obtained:
Assay in all cases: LOEC (log10 uM (lowest observed effect concentration))
[1] = compound: OCCC(F)(F)C(F)(F)C(F)(F)C(F)(F)C(F)(F)C(F)(F)C(F)(F)C(F)(F)F [8:2 Fluorotelomer alcohol]
Experimental: (§1)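 BioMAP Diversity Plus panel in human primary cell co-cultures, 4 concentrations in duplicate blinded samples. Responses are log10 fold change versus DMSO control, processed with tcpl v2.1.0. A hit is called when responses at any concentration exceed the cutoff (the larger of 3*bmad or log10(1.2)); the lowest observed effect concentration (modl_ga, log10 uM) is reported for hits.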

[2] = compound: C=CC(=O)OCC(F)(F)C(F)(F)C(F)(F)C(F)(F)COC(=O)C=C [1H,1H,6H,6H-Perfluorohexane-1,6-diol diacrylate]
Experimental: as §1

[3] = compound: OCCCC(F)(F)C(F)(F)C(F)(F)C(F)(F)C(F)(F)C(F)(F)C(F)(F)C(F)(F)F [3-(Perfluorooctyl)propanol]
Experimental: as §1

[4] = compound: FC(F)(I)C(F)(F)C(F)(F)C(F)(F)C(F)(F)C(F)(F)I [1,6-Diiodoperfluorohexane]
Experimental: as §1

[5] = compound: O=C(CC(=O)C(F)(F)C(F)(F)C(F)(F)F)c1cccs1 [(Perfluorobutyryl)-2-thenoylmethane]
Experimental: as §1

Perfluoropinacol = compound: OC(C(F)(F)F)(C(F)(F)F)C(O)(C(F)(F)F)C(F)(F)F [Perfluoropinacol]
Experimental: as §1

[6] = compound: OCC(F)(F)C(F)(F)C(F)(F)C(F)(F)C(F)(F)C(F)(F)C(F)(F)C(F)(F)CO [1H,1H,10H,10H-Perfluorodecane-1,10-diol]
Experimental: as §1

Test System | LOEC (log10 uM) [1] | LOEC (log10 uM) [2] | LOEC (log10 uM) [3] | LOEC (log10 uM) [4] | LOEC (log10 uM) [5] | LOEC (log10 uM) (Perfluoropinacol) | LOEC (log10 uM) [6]
CASM3C PAI1 down | 1.78 | 1.78 | 1.78 | 1.78 | – | – | –
3C IL8 down | 1.78 | 1.54 ± 0.34 | 1.3 | 1.54 ± 0.34 | 0.845 | 1.78 | –
SAg IL8 down | 1.78 | 1.3 | 1.78 | 1.78 | 1.07 ± 0.32 | 1.54 ± 0.34 | –
hDFCGF IL8 down | 1.3 | 1.3 | 1.3 | 0.845 | – | – | 1.78
CASM3C uPAR down | 1.78 | 1.78 | 1.78 | 1.78 | 1.78 | 1.54 ± 0.34 | –
IMphg IL1a down | – | – | 1.78 | – | – | – | 1.78
CASM3C TissueFactor up | – | 1.78 | – | – | – | – | –
BE3C MMP1 down | – | – | – | – | 1.78 | – | –
KF3CT PAI1 down | 1.3 | 1.3 | 1.07 ± 0.32 | 0.845 | – | 1.78 | 1.78
MyoF TIMP1 down | 1.3 | 1.3 | 1.3 | 1.3 | – | – | –
MyoF Decorin down | 1.3 | 1.3 | 1.3 | 1.3 | – | 1.78 | –
hDFCGF PAI1 down | 1.3 | 1.3 | 0.845 | 0.845 | – | 1.78 | 1.78
3C Thrombomodulin up | – | – | – | 1.54 ± 0.34 | – | – | –
MyoF bFGF down | 1.3 | 1.3 | 1.3 | 0.845 | – | – | –
MyoF CollagenIV down | – | 1.3 | – | – | – | – | –
3C MIG down | – | 1.3 | 1.78 | 1.78 | 1.78 | 1.78 | –
3C ICAM1 down | 1.78 | 1.54 ± 0.34 | 1.3 | 1.78 | 1.78 | – | –
4H VEGFRII down | 1.54 ± 0.34 | 1.54 ± 0.34 | 1.78 | – | 1.3 | 1.54 ± 0.34 | –
CASM3C MCP1 up | – | – | – | – | – | 1.54 ± 0.34 | –
BF4T ICAM1 down | 1.78 | 1.3 | 1.3 | 1.07 ± 0.32 | 1.78 | – | 1.3
CASM3C LDLR down | 1.78 | – | 1.78 | 1.54 ± 0.34 | 1.54 ± 0.34 | – | –
BE3C tPA down | 1.3 | 1.54 ± 0.34 | 1.78 | 1.78 | 1.3 | 1.3 | –
3C MCP1 down | 1.78 | 1.3 | 1.3 | 1.54 ± 0.34 | 1.3 | 1.78 | –
CASM3C TissueFactor down | 1.78 | – | 1.78 | – | 0.845 | – | –
3C TissueFactor down | 1.54 ± 0.34 | 1.07 ± 0.32 | 1.3 | 1.78 | 1.3 | 1.3 | –
BE3C uPA down | 1.78 | 1.54 ± 0.34 | 1.78 | 1.78 | 1.78 | 1.78 | –
MyoF CollagenI down | 1.3 | 1.3 | 1.3 | 0.845 | 1.3 | 1.78 | –

Test System | LOEC (log10 uM) [1] | LOEC (log10 uM) [2] | LOEC (log10 uM) [3] | LOEC (log10 uM) [4] | LOEC (log10 uM) [5] | LOEC (log10 uM) (Perfluoropinacol) | LOEC (log10 uM) [6]
SAg CD69 down | 1.54 ± 0.34 | 1.3 | 1.54 ± 0.34 | 1.78 | 0.845 | 1.3 | –
BE3C PAI1 down | 1.3 | – | 1.78 | 1.54 ± 0.34 | 0.301 | 1.07 ± 0.32 | 1.78
hDFCGF SRB down | 1.3 | 0.845 | 0.845 | 0.845 | – | – | 1.54 ± 0.34
IMphg IL8 down | – | – | – | 1.78 | – | – | 1.78
CASM3C SAA down | 1.78 | 1.3 | 1.78 | 1.3 | 1.78 | – | –
3C HLADR down | 1.3 | 1.3 | 1.3 | 1.54 ± 0.34 | 1.07 ± 0.32 | 1.3 | –
SAg MIG down | 1.78 | 1.3 | 1.78 | 1.78 | 1.78 | 1.78 | –
LPS PGE2 down | – | 1.3 | – | – | – | – | –
LPS MCSF down | 1.04 ± 1 | 1.3 | 1.3 | 1.78 | – | 1.3 | –
hDFCGF CollagenI down | 1.78 | – | – | – | 1.3 | – | –
LPS MCP1 down | 1.3 | 1.3 | 1.07 ± 0.32 | 1.78 | 1.3 | 1.3 | –
LPS Thrombomodulin down | – | – | – | – | – | 1.07 ± 0.32 | –
LPS SRB down | 1.3 | 1.3 | 1.3 | 1.78 | 1.3 | 1.3 | –
KF3CT IL1a down | 1.3 | 1.54 ± 0.34 | 0.845 | 1.3 | – | – | –
KF3CT MCP1 up | – | – | – | – | – | 1.3 | –
BF4T MMP3 down | – | – | 1.78 | 1.3 | 1.54 ± 0.34 | – | –
BF4T uPA down | 1.78 | 1.78 | 1.54 ± 0.34 | 1.54 ± 0.34 | 1.54 ± 0.34 | – | –
MyoF SRB down | 1.3 | 1.3 | 1.3 | 0.845 | – | 1.78 | –
KF3CT MCP1 down | 1.3 | 1.07 ± 0.32 | 1.3 | 0.845 | – | – | 1.78
KF3CT uPA down | 1.3 | 1.3 | 1.3 | 1.3 | – | – | –
LPS Eselectin down | 1.78 | 1.3 | 0.845 | 1.54 ± 0.34 | – | 1.78 | –
BF4T Keratin818 down | – | – | 1.54 ± 0.34 | 1.78 | 1.3 | – | –
SAg CD38 down | 1.3 | 1.3 | 1.3 | 1.78 | 1.07 ± 0.32 | 1.3 | –
BF4T IL1a down | – | 1.78 | 1.78 | 1.54 ± 0.34 | 1.78 | – | –
3C VCAM1 down | 1.3 | 1.3 | 1.3 | 1.54 ± 0.34 | 1.3 | 1.78 | –
4H uPAR down | 1.3 | 1.78 | 1.54 ± 0.34 | 1.78 | 1.78 | 1.07 ± 0.32 | –

— the supplement of paper PMC10331698
